Entries after “also recorded” stand apart in the source; their conditions may differ.

The record followed here is patent publication US20230152314A1, “LIPOCALIN-2 ASSAY FOR INTESTINAL ADAPTATION” (THE JOHNS HOPKINS UNIVERSITY, priority 2020, published 2023).

Assay [1] has as its system WT SBR mice. The experiment in a line: I3C (AHR agonist) supplementation in SBR mice: weight gain. The class given is in vivo, mouse. As to conditions: WT SBR mice vs DMSO-treated control, postoperative days 3-7, p=0.04 at day 7. An excerpt: In one experiment, AHR agonists are studied in our SBR model. The purpose of this experiment is to study AHR activation via a dietary supplement, which has tremendous potential as a translational approach. Under our ACUC-approved protocol, we will perform a 75% SBR on the same four groups [n=12 mice in each group] of C57Bl/6J mice: WT, LCN2-/-, AHR-/- and AHR-/-LCN2-/-. Sham-operated WT, LCN2-/-, AHR-/- and AHR-/-LCN2-/- C57Bl/6J mice [n=12 mice in each group] will serve as controls. Mice will be randomized to receive either the AHR agonist, indole-3-carbinol […]) (Sigma, 17256, St Louis, Mo.) at a dose of 15-20 mg/kg, dissolved in DMSO, or DMSO alone mixed into the liquid diet. The rodent liquid diet containing […] will be maintained for the duration of the postoperative period. Control mice will receive DMSO only. Mice will be weighed daily. One week later, the mice will be anesthetized for tissue collection and analyses performed.

Assay [2] deals with WT SBR mice (75% SBR model of short bowel syndrome). Description: Rescue IL-22 therapy for SBR WT mice: body weight and villus length. The class given is in vivo, mouse. The protocol:
Creation of a clinically relevant model of short bowel syndrome in the mouse. In our laboratory, we established the model previously described by Helmrath et al.^18 Briefly, the hair on the abdomen of the mouse was removed by depilatory creams, and the abdomen was scrubbed with three rounds of betadine, prior to making an incision. Through a 1.5 cm midline laparotomy, the small bowel was examined. The 75% SBR was performed by transecting 3 cm distal to the ligament of Treitz and 6 cm proximal to the cecum. The intervening proximal small bowel (approximately 18 cms) was removed. Intestinal continuity was restored with a primary end-to-end jejunoileal anastomosis using 8-0 Nylon suture. The sham operation (SHA) was performed by transecting the small bowel 6 cm proximal to the cecum and immediately creating a primary end-to-end ileoileal anastomosis. Subcutaneous closure was performed with a running absorbable 4-0 Vicryl suture. Cutaneous closure was completed by interrupted 4-0 silk sutures. All animals received 1 mL of saline subcutaneously before and immediately after procedure.
After surgery, mice were offered free access to water for the first 24 hours. Fresh rodent liquid diet was provided and body weight was measured daily. Bromodeoxyuridine (BrdU) (Invitrogen, 00-0103) was administered through intraperitoneal injection (ip) 24 hours before euthanasia. Intestinal permeability was evaluated with FITC-Dextran intestinal permeability assay as described below. Serum, intestinal issue, liver, and cecal content were collected after euthanasia.
Morphometric Analysis. The jejunum and ileum were fixed in 10% neutral buffered formalin for 24 hours. […] Villus length in jejunum and ileum was measured under light microscopy (EVOS FL Auto Imaging System). At least 30 well-oriented intact villi were counted per mouse.
Rescue IL-22 Therapy for SBR WT Mice. […] The relative abundance of Proteobacteria, Bacteroidetes, Firmicutes, Lactobacillus and Enterobacteriaceae of fecal microbiome and Reg3b and Reg3g genes in the intestine were assessed by q-PCR.

Assay [3] deals with Proteobacteria, Bacteroidetes, Firmicutes of fecal microbiome. The experiment in a line: Rescue IL-22 therapy: relative abundance of fecal microbiome groups by q-PCR. The class given is in vivo, mouse. The settings on record: WT SBR mice, POD 7, q-PCR. The protocol:
(§1) Rescue IL-22 Therapy for SBR WT Mice. Following a 75% SBR, WT mice were treated daily for six days via intraperitoneal injections with either 100 μL PBS as control or 100 μL PBS containing 4 μg rmIL-22 (PeproTECH, 210-22) as treatment. At post-operative day (POD) 7, intestinal tissue and cecal contents were collected after euthanasia. The relative abundance of Proteobacteria, Bacteroidetes, Firmicutes, Lactobacillus and Enterobacteriaceae of fecal microbiome and Reg3b and Reg3g genes in the intestine were assessed by q-PCR.
(§2) Quantitative real-time PCR. Gene quantification was carried out with iTap Universal SYBR Green Supermix (Bio-rad, 172-5124, Hercules, Calif., USA) on a CFX96 Touch Real-time PCR system (Bio-rad) according to the manufacturer's instructions and calculated with 2^−ΔΔCT method. Thermal cycling was performed at 95° C. for 5 min, followed by 40 cycles at 95° C. for 15 s, 60° C. 10s, 72° C. for 30 s. Primers for transcriptional levels of Lcn2, IL-6.

The subject of assay [4] is Reg3b, Reg3g and Tnf-α genes in the intestine. Description: Rescue IL-22 therapy: transcriptional levels of intestinal genes by q-PCR. As to conditions: WT SBR mice. The class given is in vivo, mouse. As to the method:
as §1
RNA Extraction and Reverse Transcription. Total RNA from tissue was extracted according to the manufacturer's instructions (QIAGEN, RNeasy Mini Kit, 74106). Genomic DNA was eliminated from RNA, and total RNA (0.5 μg) was reverse transcribed to cDNA with QuantiTect Reverse Transcription Kit according to the manufacturer's protocol (QIAGEN, 205311, Germantown, Md., USA).
as §2

Assay [5] concerns Th22 cells. Description: Th22 cell differentiation with and without LCN2, IL-22 ELISA of supernatant. The class given is cell-based, mouse. The settings on record: rmLCN2 1 ug/mL, 5 days. As to the method:
Naïve CD4^+ T Lymphocytes Isolation and Th22 cells Differentiation. We isolated naïve CD4+ T cells as previously described by Bedoya S K et al.^22 Briefly, splenic tissue was removed from 6-week old C57BL/6J male mice and ground into a single cell suspension under a sterile hood. Red blood cells (RBC) were removed by using ammonium-chloride-potassium (ACK) lysing buffer (Quality Biological, 118-156-101, Gaithersburg, Md., USA) at RT for 3 minutes. Naïve CD4+ T cells were isolated from total splenocyte by magnetic activated cell sorting (MACS) based on positive selection using CD4 (L3T4) MicroBeads (Miltenyi Biotec, 130-117-043, Bergisch-Gladbach, Germany) according to the manufacturer's instructions. The purity of naive CD4+ T cells was more than 97%, as measured by flow cytometry.
For Th22 cell differentiation, CD4+ T cells were stimulated in complete media (RPMI 1640 with 2 mM L-glutamine, 10% FBS, […] 1-ME, 100 U/ml penicillin-streptomycin) with plate-bound anti-CD3ε (Clone 145-2C11, 1 ug/mL, BD; 550275) and soluble anti-CD28 (Clone 37.51, 2 ug/ml, BD, 553295) for 5 days under polarizing condition for Th22 cells (IL-6 20 ng/mL, IL-β 10 ng/mL, TNF-α 10 ng/mL)^23 with and without mouse recombinant (rm) LCN2 (1 ug/mL, R&D, 1857-LC-050). Cell supernatant was collected for IL-22 ELISA analysis (Invitrogen, 88-7422-22) according to the manufacturer's instructions.

Setting [6] is: POD 7, compared to PBS-treated group.
Setting [7] is: jejunum and colon, especially in the colon.

With `OCc1c[nH]c2ccccc12` [I3C, indole-3-carbinol], the “weight gain following SBR” value in assay [1] is on record as “increases; also recorded: significant increase”.

As for “rmIL-22: recombinant mouse IL-22 (PeproTECH, 210-22), given intraperitoneally in PBS”, the body weight lost in assay [2] (POD 7, 4 μg rmIL-22 ip daily for six days) worked out at 7.5%. Moreover, in assay [2] (setting [6]), the “length of villi in ileum” value is recorded as “no difference” and the “length of villi in jejunum” value is listed as “significantly longer”. For the same molecule, in assay [3], the “relative abundance of Bacteroidetes” value is on record as “increased”, the “relative abundance of Firmicutes” value was “increased” and the “relative abundance of Proteobacteria” value was “decreased”. For the same molecule, in assay [4] (setting [7]), the Reg3b transcriptional level result is “robust increase” and the Reg3g transcriptional level result is listed as “robust increase”. The “transcriptional levels of Tnf-α” value in assay [4] (jejunum, inflammation) is “increased”.

B1: LCN2: mouse recombinant (rm) LCN2 (R&D, 1857-LC-050) added to Th22 polarizing culture (protein, UniProt P11672 21-200, looked up)
Neutrophil …: QDSTQNLIPAPSLLTVPLQPDFRSDQFRGRWYVVGLAGNAVQKKTEGSFTMYSTIYELQENNSYNVTSILVRDQDQGCRYWIRTFVPSSRAGQFTLGNMHRYPQVQSYNVQVATTDYNQFAMVFFRKTSENKQYFKITLYGRTKELSPELKERFTRFAKSLGLKDDNIIFSVPTDQCIDN
On to B1, for which the “levels of IL-22 protein expression from Th22 cells” value in assay [5] was “significantly decreased”.
